Source: patent publication US9617256B2 (priority 2007, dated 2017)
Converted amounts (≈) assume the structure as drawn.

How the values were obtained:
[1] = system: APAE006 in the presence of 8 micrograms per milliliter of polymyxin B nonapeptide; type: cell-based, P. aeruginosa; settings: in the presence of 8 micrograms per milliliter of polymyxin B nonapeptide
Procedure, shortened: (§1)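 CLSI-guided microdilution: bacteria passaged overnight at 35° C. on Mueller-Hinton agar, tested in cation-adjusted broth at a final 3×10^5–7×10^5 CFU/mL across 2-fold drug dilutions, read after 18-24 h at 35° C.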

AECO001 HSA AGP = assay: MIC broth microdilution, AECO001 HSA AGP; type: cell-based, E. coli; settings: Escherichia coli
Procedure, shortened: (§2)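 Incubation: 35° C., ambient air, 18-24 h. Medium: cation-adjusted Mueller-Hinton broth with 2-fold serial dilutions of drug. Inoculum: 3×10^5–7×10^5 CFU/mL final, per CLSI microdilution method.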

[2] = system: AECO063 (ATCC25922 bearing an acrAB mutation); assay: microbe, parasite or virus in culture; type: cell-based, E. coli; settings: Escherichia coli, ATCC25922, read-out: MIC AECO063
Procedure, shortened: as §2

AECO001 (ATCC25922) = assay: MIC broth microdilution, AECO001; type: cell-based, E. coli; settings: Escherichia coli, ATCC25922, read-out: MIC AECO001
Procedure, shortened: as §2

[3] = system: APAE006 (strain of P. aeruginosa in which all efflux pumps are inactivated); assay: microbe, parasite or virus in culture; type: cell-based; settings: Pseudomonas aeruginosa, read-out: MIC APAE006, P. aeruginosa, all efflux pumps inactivated
Procedure, shortened: as §1

APAE001 (ATCC27853) = assay: MIC broth microdilution, APAE001; type: cell-based, P. aeruginosa; settings: Pseudomonas aeruginosa, ATCC27853, read-out: MIC APAE001, APAE001 is ATCC27853
Procedure, shortened: as §2

[4] = system: AABA1060 (clinical isolate of Acinetobacter baumannii); assay: MIC broth microdilution, AABA1060; type: cell-based; settings: Acinetobacter baumannii, read-out: MIC AABA1060
Procedure, shortened: as §2

[5] = system: ASAU001 (laboratory strain of S. aureus, ATCC29213); assay: MIC broth microdilution, ASAU001; type: cell-based; settings: Staphylococcus aureus, ATCC29213, read-out: MIC ASAU001
Procedure, shortened: as §2

| SMILES | MIC APAE006 + PMBN [1] | MIC (AECO001 HSA AGP) [µg/mL] | MIC [2] [µg/mL] | MIC (AECO001 (ATCC25922)) [µg/mL] | MIC [3] [µg/mL] | MIC (APAE001 (ATCC27853)) [µg/mL] | MIC [4] [µg/mL] | MIC [5] [µg/mL] |
| --- | --- | --- | --- | --- | --- | --- | --- | --- |
| CNC(=O)[C@@H](NC(=O)c1ccc(C#Cc2ccc(CN3CCOCC3)cc2)cc1)[C@@H](C)N [Example 117-1, N-((1S,2R)-2-Amino-1-methylcarbamoyl-propyl)-4-(4-morpholin-4-ylmethyl-phenylethynyl)-benzamide] | D (MIC's of greater than 64.0 μg/mL = D) | > 64 | > 64 | > 64 | > 64 | > 64 | > 64 | > 64 |
| C[C@@H](N)[C@H](NC(=O)c1ccc(C#Cc2ccc(CN3CCOCC3)cc2)cc1)C(=O)O [Example 117-2, (2S,3R)-3-Amino-2-[4-(4-morpholin-4-ylmethyl-phenylethynyl)-benzoylamino]-butyric acid] | C (MIC's of greater than 16.0 μg/mL to 64.0 μg/mL = C) | > 64 | > 64 | > 64 | > 64 | > 64 | > 64 | > 64 |
| C[C@@H](N)[C@H](NC(=O)c1ccc(C#Cc2ccc(CN3CCC3)cc2)cc1)C(=O)NO [Example 118-1, N-((1S,2R)-2-Amino-1-hydroxycarbamoyl-propyl)-4-(4-azetidin-1-ylmethyl-phenylethynyl)-benzamide] | A (MIC's of 2.0 μg/mL or less = A) | 16 to 64 (≈ 39.4 to 157 µM) | 2 to 16 (≈ 4.92 to 39.4 µM) | 16 to 64 (≈ 39.4 to 157 µM) | < 2 | 2 to 16 (≈ 4.92 to 39.4 µM) | 16 to 64 (≈ 39.4 to 157 µM) | 16 to 64 (≈ 39.4 to 157 µM) |
| C[C@@H](N)[C@H](NC(=O)c1ccc(C#Cc2ccc(CN3CCc4[nH]ncc4C3)cc2)cc1)C(=O)NO [Example 118-2] | A (MIC's of 2.0 μg/mL or less = A) | 16 to 64 (≈ 33.9 to 135 µM) | < 2 | < 2 | < 2 | < 2 | 2 to 16 (≈ 4.23 to 33.9 µM) | 16 to 64 (≈ 33.9 to 135 µM) |
| C[C@@H](N)[C@H](NC(=O)c1ccc(C#Cc2ccc(CN3CCC(F)(F)C3)cc2)cc1)C(=O)NO [Example 118-3] | A (MIC's of 2.0 μg/mL or less = A) | 2 to 16 (≈ 4.38 to 35 µM) | < 2 | < 2 | < 2 | 2 to 16 (≈ 4.38 to 35 µM) | 2 to 16 (≈ 4.38 to 35 µM) | 16 to 64 (≈ 35 to 140 µM) |
| C[C@@H](N)[C@H](NC(=O)c1ccc(C#Cc2ccc(CNCC(C)(C)C)cc2)cc1)C(=O)NO [Example 118-4] | A (MIC's of 2.0 μg/mL or less = A) | 2 to 16 (≈ 4.58 to 36.7 µM) | < 2 | < 2 | < 2 | < 2 | 16 to 64 (≈ 36.7 to 147 µM) | > 64 |
| C[C@@H](N)[C@H](NC(=O)c1ccc(C#Cc2ccc(CNCC3CCCO3)cc2)cc1)C(=O)NO (some centres unmarked) [Example 118-5] | A (MIC's of 2.0 μg/mL or less = A) | 2 to 16 (≈ 4.44 to 35.5 µM) | < 2 | 2 to 16 (≈ 4.44 to 35.5 µM) | < 2 | < 2 | 16 to 64 (≈ 35.5 to 142 µM) | > 64 |
| C[C@@H](N)[C@H](NC(=O)c1ccc(C#Cc2ccc(CNC3CCCC3)cc2)cc1)C(=O)NO [Example 118-6] | A (MIC's of 2.0 μg/mL or less = A) | 2 to 16 (≈ 4.6 to 36.8 µM) | < 2 | 2 to 16 (≈ 4.6 to 36.8 µM) | < 2 | < 2 | 16 to 64 (≈ 36.8 to 147 µM) | 16 to 64 (≈ 36.8 to 147 µM) |
| C[C@@H](N)[C@H](NC(=O)c1ccc(C#Cc2ccc(CN3CCCOCC3)cc2)cc1)C(=O)NO [Example 118-7] | A (MIC's of 2.0 μg/mL or less = A) | 2 to 16 (≈ 4.44 to 35.5 µM) | < 2 | < 2 | < 2 | < 2 | 2 to 16 (≈ 4.44 to 35.5 µM) | 16 to 64 (≈ 35.5 to 142 µM) |
| C[C@@H](N)[C@H](NC(=O)c1ccc(C#Cc2ccc(CNCCC#N)cc2)cc1)C(=O)NO [Example 118-8] | A (MIC's of 2.0 μg/mL or less = A) | 2 to 16 (≈ 4.77 to 38.1 µM) | < 2 | < 2 | < 2 | < 2 | 2 to 16 (≈ 4.77 to 38.1 µM) | 16 to 64 (≈ 38.1 to 153 µM) |
